# Laboratory results published in publication PMC10287566, “Signaling-specific inhibition of the CB1 receptor for cannabis use disorder: phase 1 and phase 2a randomized trials” (Nature Medicine, 2023).
# Legend:
# CYP and phase II enzymes = experiment: Drug metabolic pathways (CYP and phase II enzymes), metabolites; format: in vitro ADME
# healthy volunteers [1] = format: in vivo, human; conditions: SAD
# healthy volunteers [2] = experiment: Phase 1 single-ascending-dose (SAD) study, safety
# Procedure: Four single oral dose levels (0.2, 0.6, 2 and 6 mg) were given in the morning on day 1 in the SAD study, and three oral doses (0.6, 2 and 6 mg) were given in the morning of day 1 to day 7 in the MAD study, to independent dose cohorts. […] Each dose cohort comprised eight volunteers (six (5/1) active and two (1/1) placebo per dose level).
# During the rest of the study, only volunteers with pathological values were excluded.
# Participants were admitted to the research clinic at midday before dosing (day −1). In the SAD study, they remained in-house until day 8 for PK and PD samples and safety assessments. In the MAD study, participants remained in-house until day 14 and returned to the research facility on an outpatient basis to have PK and safety assessments at 216 h and 264 h (day 16 and day 18) after their last dose (day 7). Safety monitoring (physical examinations, vital sign measurements, 12-lead ECGs, clinical safety laboratory tests and AE monitoring) were performed throughout the studies. Psychometrics tests (Bond & Lader VAS, Addiction Research Center Inventory (49-item short form) (ARCI-49) and Profile of Mood States 65 self-report items (POMS-65)) and the Columbia-Suicide Severity Rating Scale (C-SSRS) test were performed at baseline, before dose and at 4 h and 24 h after dose on day 1 and day 7 (MAD study, only) and C-SSRS only at 24 h.
# All participants who had AEs, whether considered associated with the use of the investigational product or not, were monitored for as long as needed to determine resolution.
# mice [3] = experiment: Depression-related behavior, sucrose preference test, repeated treatment; format: in vivo; conditions: mice, sucrose preference test, highest dose tested 15 mg/kg
# Description: Anxiety-like behaviors were studied in the elevated plus maze (EPM), a rodent model used to evaluate the putative anxiogenic or anxiolytic effects of pharmacological compounds. Depression-related behaviors were studied using the sucrose preference test as a model of anhedonia, one of the cardinal symptoms of depression.
# The sucrose preference test was done in the home cage. Two identical bottles, one containing water and the other containing a 2% sucrose solution, were placed in the hopper of each cage. The mice had unlimited access to water and sucrose solutions during the active phase—the dark phase of the light/dark cycle that started at 20:00. The volume of water and of sucrose solution consumed was measured over two […] intervals, the first between 19:00 and 20:30 and the second between 20:30 and 22:00. At each timepoint, the bottles were weighed, and the intake volume was calculated by subtracting the […].
# The EPM assessment was done on day 26, and the sucrose preference test was done on day 28.
# volunteers with CUD = experiment: Phase 2a study, plasma steroids, endocannabinoids, THC and metabolites; format: in vivo, human
# Procedure: THC and its metabolites (11-OH-THC and 11-COOH-THC) were assessed at the same timepoints. […] THC and its metabolites analyses were performed using PD dataset (n = 13 for both doses).
# PK parameters for AEF0117 were subject to descriptive statistics separately for each treatment group.
# ALLO, DHEA, PREG and TESTO, as well as AEA and 2-AG, were measured. Data were analyzed using a global crossover MRMM analysis on the PD dataset (n = 13 per dose cohort).
# AR (androgen receptor) = experiment: Eurofins binding screen; conditions: 10 µM
# mice [4] = experiment: THC-induced impairment of pre-pulse inhibition; format: in vivo
# squirrel monkeys = experiment: THC-induced reinstatement of THC seeking in squirrel monkeys; format: in vivo, Saimiri sciureus
# Description: Two experimental models were used: (1) THC i.v. self-administration and (2) THC-induced reinstatement of THC seeking. These two approaches were used to model the maintenance of daily cannabis use and cannabis seeking after a period of abstinence.
# For the THC-induced reinstatement of THC seeking, the monkeys underwent daily extinction sessions during which lever presses led to vehicle infusions and the visual cues previously paired with THC infusions but not THC. […] THC injections were given immediately before the start of the test sessions. During testing, lever presses (FR10) continued to produce only vehicle injections and the THC-paired cues. […] Recommendations from the Guide for the Care and Use of Laboratory Animals (8th edition) and guidelines of the Institutional Animal Care and Use Committee of the Intramural Research Program, NIDA, NIH, DHHS, were followed. Animals were maintained in facilities fully accredited by the AAALAC. Operation of the experimental chambers and data collection were controlled by IBM computers using the MED Associates MED-PC software package.
# endogenous mouse CB1 = biological target: T1, endogenous mouse CB1 (Mus musculus, UniProt P47746); experiment: THC-induced p-ERK1/2 in STHdhQ7/Q7 cells; format: cell-based; conditions: STHdhQ7/Q7, THC 10 µM; read-out: IC50, inhibition of THC-induced p-ERK1/2
# T1 construct: a striatum-derived cell line that endogenously express murine CB1; host or cells: STHdhQ7/Q7
# T1 sequence (P47746 whole entry): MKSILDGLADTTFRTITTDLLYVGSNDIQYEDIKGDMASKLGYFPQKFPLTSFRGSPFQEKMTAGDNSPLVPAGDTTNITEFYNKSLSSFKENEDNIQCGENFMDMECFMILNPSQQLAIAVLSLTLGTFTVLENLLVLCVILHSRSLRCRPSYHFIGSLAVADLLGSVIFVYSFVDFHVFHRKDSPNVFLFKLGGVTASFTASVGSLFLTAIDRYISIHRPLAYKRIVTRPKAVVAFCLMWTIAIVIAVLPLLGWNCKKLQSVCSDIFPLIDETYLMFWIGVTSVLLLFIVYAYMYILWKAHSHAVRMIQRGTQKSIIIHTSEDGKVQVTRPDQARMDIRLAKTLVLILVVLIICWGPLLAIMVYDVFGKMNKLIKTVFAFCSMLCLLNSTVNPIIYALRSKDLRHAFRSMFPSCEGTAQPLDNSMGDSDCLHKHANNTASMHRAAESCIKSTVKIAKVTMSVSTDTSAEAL
# [5] = Impairment of pre-pulse inhibition
# [6] = Reinstatement of THC self-administration
structure (smiles),measurement,setting,value
"COc1ccc(CO[C@H]2CC[C@@]3(C)C(=CC[C@H]4[C@@H]5CC[C@H](C(C)=O)[C@@]5(C)CC[C@@H]43)C2)cc1 [AEF0117, 3β-(4-methoxybenzyloxy)pregn-5-en-20-one]",interaction with major drug metabolic pathways (CYP and phase II enzymes),CYP and phase II enzymes,"does not modify the activity of, nor is it notably metabolized by"
same,ARCI 49 sub-scores,healthy volunteers [1]; 0.2-6 mg vs placebo,No relevant trend
same,"Bond and Lader VAS (alertness, contentedness, calmness)",healthy volunteers [1]; 0.2-6 mg vs placebo,No clinically relevant differences
same,POMS 65 sub-scales,healthy volunteers [1]; 0.2-6 mg vs placebo,No relevant trend
same,C-SSRS: number of subjects with suicidal ideation or behavior,"healthy volunteers [1]; all doses 0.2-6 mg, Day 1 and Day 2",0 n (%)
same,Number of TEAEs,healthy volunteers [2]; single 0.2 mg,4 E
same,Number of participants with a TEAE leading to discontinuation,healthy volunteers [2]; single 0.2 mg,0 n (%)
same,Number of participants with an SAE,healthy volunteers [2]; single 0.2 mg,0 n (%)
same,Number of participants with at least one TEAE,healthy volunteers [2]; single 0.2 mg,2 (33.3) n (%)
same,Participants with TEAE: Mild,healthy volunteers [2]; single 0.2 mg,2 (33.3) n (%)
same,Participants with TEAE: Moderate,healthy volunteers [2]; single 0.2 mg,1 (16.7) n (%)
same,Participants with TEAE: Not related,healthy volunteers [2]; single 0.2 mg,1 (16.7) n (%)
same,Participants with TEAE: Severe,healthy volunteers [2]; single 0.2 mg,0 n (%)
same,TEAEs by SOC: Gastrointestinal disorders,healthy volunteers [2]; single 0.2 mg,2 (33.3) n (%)
same,TEAEs by SOC: Investigations,healthy volunteers [2]; single 0.2 mg,0 n (%)
same,TEAEs by SOC: Nervous system disorders,healthy volunteers [2]; single 0.2 mg,1 (16.7) n (%)
same,Number of TEAEs,healthy volunteers [2]; single 0.6 mg,0 E
same,Number of participants with a TEAE leading to discontinuation,healthy volunteers [2]; single 0.6 mg,0 n (%)
same,Number of participants with an SAE,healthy volunteers [2]; single 0.6 mg,0 n (%)
same,Number of participants with at least one TEAE,healthy volunteers [2]; single 0.6 mg,0 n (%)
same,Participants with TEAE: Mild,healthy volunteers [2]; single 0.6 mg,0 n (%)
same,Participants with TEAE: Moderate,healthy volunteers [2]; single 0.6 mg,0 n (%)
same,Participants with TEAE: Not related,healthy volunteers [2]; single 0.6 mg,0 n (%)
same,Participants with TEAE: Related,healthy volunteers [2]; single 0.6 mg,0 n (%)
same,Participants with TEAE: Severe,healthy volunteers [2]; single 0.6 mg,0 n (%)
same,TEAEs by SOC: Gastrointestinal disorders,healthy volunteers [2]; single 0.6 mg,0 n (%)
same,TEAEs by SOC: Investigations,healthy volunteers [2]; single 0.6 mg,0 n (%)
same,TEAEs by SOC: Nervous system disorders,healthy volunteers [2]; single 0.6 mg,0 n (%)
same,Number of TEAEs,healthy volunteers [2]; single 2 mg,2 E
same,Number of participants with a TEAE leading to discontinuation,healthy volunteers [2]; single 2 mg,0 n (%)
same,Number of participants with an SAE,healthy volunteers [2]; single 2 mg,0 n (%)
same,Number of participants with at least one TEAE,healthy volunteers [2]; single 2 mg,1 (8.3) n (%)
same,Participants with TEAE: Mild,healthy volunteers [2]; single 2 mg,1 (8.3) n (%)
same,Participants with TEAE: Moderate,healthy volunteers [2]; single 2 mg,0 n (%)
same,Participants with TEAE: Not related,healthy volunteers [2]; single 2 mg,0 n (%)
same,Participants with TEAE: Severe,healthy volunteers [2]; single 2 mg,0 n (%)
same,TEAEs by SOC: Gastrointestinal disorders,healthy volunteers [2]; single 2 mg,0 n (%)
same,TEAEs by SOC: Investigations,healthy volunteers [2]; single 2 mg,1 (8.3) n (%)
same,TEAEs by SOC: Nervous system disorders,healthy volunteers [2]; single 2 mg,0 n (%)
same,Number of TEAEs,healthy volunteers [2]; single 6 mg,0 E
same,Number of participants with a TEAE leading to discontinuation,healthy volunteers [2]; single 6 mg,0 n (%)
same,Number of participants with an SAE,healthy volunteers [2]; single 6 mg,0 n (%)
same,Number of participants with at least one TEAE,healthy volunteers [2]; single 6 mg,0 n (%)
same,Participants with TEAE: Mild,healthy volunteers [2]; single 6 mg,0 n (%)
same,Participants with TEAE: Moderate,healthy volunteers [2]; single 6 mg,0 n (%)
same,Participants with TEAE: Not related,healthy volunteers [2]; single 6 mg,0 n (%)
same,Participants with TEAE: Related,healthy volunteers [2]; single 6 mg,0 n (%)
same,Participants with TEAE: Severe,healthy volunteers [2]; single 6 mg,0 n (%)
same,TEAEs by SOC: Gastrointestinal disorders,healthy volunteers [2]; single 6 mg,0 n (%)
same,TEAEs by SOC: Investigations,healthy volunteers [2]; single 6 mg,0 n (%)
same,TEAEs by SOC: Nervous system disorders,healthy volunteers [2]; single 6 mg,0 n (%)
same,Overall effect: increase in depression-related behaviors,mice [3],No
same,"plasma THC and its metabolites, AEF0117 vs placebo periods",volunteers with CUD,no statistically significant differences
same,Percent inhibition of control specific binding,AR (androgen receptor),20%
same,THC impairment in sensory motor gating (PPI),mice [4],inhibited
same,% Inhibition,mice [4]; [5],100%
same,ID50,mice [4]; [5],4.5 µg/kg
same,ID100,mice [4]; [5],15 µg/kg
same,reinstatement of THC seeking,squirrel monkeys; 1.5 µg kg^−1 oral,significantly reduced
same,% Inhibition,squirrel monkeys; [6],80%
same,ID100,squirrel monkeys; [6],≤ 1.5 µg/kg
same,IC50,endogenous mouse CB1,300 nM
